Measured values as given in PMC8486872, “A rational blueprint for the design of chemically-controlled protein switches” (Nature Communications, 2021).
“And” between values parts separate entries of the source, which are not always exact repeats. Equal values may be shown once. “Also recorded” adds a separate entry of the source.

Experiments:
[1] = system: SEAP and Luciferase expression in HEK293T cells; experiment: SIMO designer cells (AIR-1/2-GEMS + CDH-1/2-TF); format: cell-based; design: Bottom (best-fit value) / Top (best-fit value) / Span (best-fit value): unit not given here
From the text: Fig. 5 Orthogonal chemical switches enable implementation of multi-input multi-output control modes in mammalian cells. a Scheme of multi-inputs multi-outputs (MIMO) designer cells where two drugs control two different outputs. b, c Cells were co-transfected with AIR-1/2-GEMS and CDH-3-TF regulate SEAP and Luciferase expression, respectively. […] AIR-1/2-GEMS coupled with SEAP expression circuits were co-transfected with CDH-1/2-TF circuits which control the Luciferase production. Respective drug concentrations ranged from 0.001 nM to 1 µM. All values presented are mean ± s.d. of three replicates and curves were fitted by four-parameters nonlinear regression. b, c, e, f, h, i Source data are available in the source data file.
Finally, we engineered SIMO cells (Fig. 5g) using two designed switches that produce ON and OFF responses upon exposure to the same drug. We transfected cells with combinations of AIR-GEMS and CDH-TFs which controlled the expression of the reporter proteins SEAP and Luciferase, respectively. […] Therefore, computational design expanded the repertoire of protein switches controlled by the same compounds that can be used to simultaneous turn ON and OFF synergistic outputs. […]
AIR-1-GEMS coupled with SEAP expression circuits (i) and CDH-1-TF circuits which control the Luciferase production (j). j-k) Quantification of SEAP and Luciferase activities under Drug-2. AIR-2-GEMS coupled with SEAP expression circuits (k) and CDH-2-TF circuits which control the Luciferase production (l). b-k) Each data point represents the mean of n = 3 biological replicates, and the dose-dependent curve were fitted using four-parameter nonlinear regression.

[2] = system: JAK/STAT pathway SEAP expression in HEK293T cells; experiment: AIR-GEMS ON-switch SEAP assay; conditions: Homo sapiens, HEK-293T, read-out: EC50, AIR-2-GEMS activation by Drug-2
Procedure: We fused the AIR components in the ectodomains of the GEMS and measured SEAP activity as a reporter for drug-triggered activation.
HEK293T cells were maintained in DMEM medium with 10% FBS (Gibco) and Pen/Strep (Thermo Fisher). Cells were maintained and split every two days at around 80% confluence. HEK293T cells were seeded 24 h before transfection, and transfected with the lipofectamine 3000 kit (Thermo Fisher). Plasmids were cotransfected according to the Table S7. For the drug OFF-switch experiments, drugs were added 12 h post transfection and incubated with cells for 24 h before the SEAP detection assay.
Representative data of cellular assays are presented as individual values and mean values (bars). n = 3 refers to biological replicates. All IC50/EC50 values of cellular assays (CDH-TF, CDH-GEMS, AIR-TF and AIR-GEMS) reported were calculated using four-parameter nonlinear regression ± s.d.
Bcl2 mutants were cloned into the AIR-GEMS

[3] = target: Bcl2:LD3 complex (CDH-2) (Homo sapiens, UniProt P10415); experiment: SEC-MALS drug-induced monomerization of Bcl2:LD3; conditions: 50 µM proteins, 100 µM drug
Sequence of Bcl2:LD3 complex (CDH-2) (P10415 with tags, fused parts or gaps): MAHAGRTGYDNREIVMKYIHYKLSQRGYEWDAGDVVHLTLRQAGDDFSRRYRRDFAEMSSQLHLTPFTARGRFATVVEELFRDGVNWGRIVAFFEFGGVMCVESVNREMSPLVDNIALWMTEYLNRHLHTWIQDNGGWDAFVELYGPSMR
Procedure: LD6 was further characterized by Size Exclusion Chromatography coupled to Light Scattering (SEC-MALS) for solution behavior, and to study dimerization and drug-induced monomerization properties. LD6 was injected at 50–100 µM into a Superdex^TM 75 300/10 GL column (GE Healthcare) using a high-performance liquid chromatography system (Ultimate 3000, Thermo Scientific) at a flow rate of 0.5 ml/min. The UV spectrum at 280 nm was collected along with static light scatter signal by a MALS device (miniDAWN TREOS, Wyatt). […] Then the mixtures were treated with either 100 µM (two-fold excess) of the corresponding drugs or the same volume of DMSO to detect complex formation and forced dissociation in SEC-MALS. The light scatter signal of the sample was collected from three different angles and the results were analyzed using the ASTRA software (version 6.1, Wyatt).
Supplementary Figure 1: Biophysical characterization of CDH-2.
Drug concentrations from 0.01 nM to
10 µM were pre-incubated with 4 µM LD3, then the mixtures were injected over a Bcl2-immobilized chip.
Response units reflect the remaining interaction of Bcl2 and LD3 in the presence of serial diluted Drug-
2. d) SEC-MALS analysis of CDH-2 showing Bcl2:LD3 complex with DMSO (black trace) and Bcl2:LD3
and LD3 (16 kDa) eluted around 22 minutes.
(1 picture or pasted object on this page, not shown here)

[4] = Fig S13j, AIR-2-GEMS control SEAP expression only, Drug-2 3.16 nM
[5] = Fig S13j, AIR-2-GEMS control SEAP expression only, Drug-2 10 nM
[6] = Fig S13j, AIR-2-GEMS control SEAP expression only, Drug-2 100 nM
[7] = Fig S13j, AIR-2-GEMS control SEAP expression only, Drug-2 316 nM
[8] = Fig S13j, AIR-2-GEMS control SEAP expression only, Drug-2 1000 nM
[9] = sheet Figure5i, SEAP, four-parameter fit

With `CC1(C)CCC(CN2CCN(c3ccc(C(=O)NS(=O)(=O)c4ccc(NCC5CCOCC5)c([N+](=O)[O-])c4)c(Oc4cnc5[nH]ccc5c4)c3)CC2)=C(c2ccc(Cl)cc2)C1` [Drug-2, Venetoclax] the “SEAP and Luciferase outputs in SIMO cells” value ([1]; 0.001 nM to 1 µM) was “simultaneously activated SEAP production and suppressed the expression of Luciferase”, the SEAP ([1]; Fig5i, turn ON (title: via AIR-1-GEMS), 0.001 nM) was 11.0539 U/L and 12.4374 U/L and 11.7528 U/L and the SEAP ([1]; Fig5i, turn ON (title: via AIR-1-GEMS), 0.005 nM) was 14.3953 U/L and 10.7601 U/L and 8.34 U/L. The SEAP ([1]; Fig5i, turn ON (title: via AIR-1-GEMS), 0.05 nM) was 12.0377 U/L and 10.3343 U/L and 7.481 U/L, the SEAP ([1]; Fig5i, turn ON (title: via AIR-1-GEMS), 0.5 nM) was 13.1482 U/L and 9.328 U/L and 7.802 U/L and the SEAP ([1]; Fig5i, turn ON (title: via AIR-1-GEMS), 1 nM) was 16.8267 U/L and 13.7148 U/L and 13.9654 U/L. The SEAP ([1]; Fig5i, turn ON (title: via AIR-1-GEMS), 5 nM) was 12.4083 U/L and 18.0777 U/L and 19.7017 U/L, the SEAP ([1]; Fig5i, turn ON (title: via AIR-1-GEMS), 10 nM) was 32.3034 U/L and 32.696 U/L and 36.5671 U/L and the SEAP ([1]; Fig5i, turn ON (title: via AIR-1-GEMS), 50 nM) was 48.8555 U/L. The SEAP ([1]; Fig5i, turn ON (title: via AIR-1-GEMS), 100 nM) was 61.1746 U/L and 72.5404 U/L, the SEAP ([1]; Fig5i, turn ON (title: via AIR-1-GEMS), 500 nM) was 94.0018 U/L and 86.0577 U/L and the SEAP ([1]; Fig5i, turn ON (title: via AIR-1-GEMS), 1000 nM) was 105.374 U/L and 86.4725 U/L. For the same molecule, the SEAP ([1]; Fig S13j, AIR-2-GEMS control SEAP expression only, Drug-2 0.01 nM) was 269 U/L and 225 U/L and 167 U/L, the SEAP ([1]; Fig S13j, AIR-2-GEMS control SEAP expression only, Drug-2 1 nM) was 225 U/L and 173 U/L and 167 U/L and the Luciferase [1, 4] was 18.3864 RLU and 14.0122 RLU and 11.0547 RLU. For the same molecule, the SEAP [1, 4] was 199 U/L and 215 U/L and 123 U/L, the Luciferase [1, 5] was 59.3143 RLU and 64.1927 RLU and 53.9121 RLU and the SEAP [1, 5] was 143 U/L and 145 U/L and 125 U/L. For the same molecule, the SEAP ([1]; Fig S13j, AIR-2-GEMS control SEAP expression only, Drug-2 31.6 nM) was 149 U/L and 123 U/L, the Luciferase [1, 6] was 277.707 RLU and 262.611 RLU and 223.323 RLU and the SEAP [1, 6] was 157 U/L and 127 U/L and 107 U/L. For the same molecule, the Luciferase [1, 7] was 280.311 RLU and 280.175 RLU and 202.801 RLU, the SEAP [1, 7] was 177 U/L and 117 U/L and 123 U/L and the Luciferase [1, 8] was 203.844 RLU and 222.434 RLU and 194.549 RLU. For the same molecule, the SEAP [1, 8] was 191 U/L and 169 U/L and 179 U/L, the SEAP ([1]; Fig S13k, CDH-2-TF control Luciferase expression only, Drug-2 0.01 nM) was 77283 U/L and 94282 U/L and 94549 U/L and the SEAP ([1]; Fig S13k, CDH-2-TF control Luciferase expression only, Drug-2 0.1 nM) was 83949 U/L and 102019 U/L and 91551 U/L. For the same molecule, the SEAP ([1]; Fig S13k, CDH-2-TF control Luciferase expression only, Drug-2 1 nM) was 97527 U/L and 93132 U/L and 98408 U/L, the SEAP ([1]; Fig S13k, CDH-2-TF control Luciferase expression only, Drug-2 3.16 nM) was 96858 U/L and 87221 U/L and 87443 U/L and the SEAP ([1]; Fig S13k, CDH-2-TF control Luciferase expression only, Drug-2 10 nM) was 78643 U/L and 87229 U/L and 90599 U/L. The SEAP ([1]; Fig S13k, CDH-2-TF control Luciferase expression only, Drug-2 31.6 nM) was 80585 U/L and 86321 U/L and 73406 U/L, the SEAP ([1]; Fig S13k, CDH-2-TF control Luciferase expression only, Drug-2 100 nM) was 64234 U/L and 74136 U/L and 75517 U/L and the SEAP ([1]; Fig S13k, CDH-2-TF control Luciferase expression only, Drug-2 316 nM) was 47807 U/L and 51555 U/L and 52806 U/L. The SEAP ([1]; Fig S13k, CDH-2-TF control Luciferase expression only, Drug-2 1000 nM) was 34743 U/L and 30667 U/L and 26001 U/L, the IC50 ([1]; Homo sapiens, HEK-293T, sheet Figure5i, SEAP column (turn ON), four-parameter fit, given as IC50, read-out: IC50 (best-fit value)) was 5.24 nM and the “Bottom (best-fit value)” value [1, 9] was 28.34. For the same molecule, the “HillSlope (best-fit value)” value [1, 9] was 1.403, the “Span (best-fit value)” value [1, 9] was 390.7 and the “Top (best-fit value)” value [1, 9] was 419. The “logIC50 (best-fit value)” value ([1]; sheet Figure5i, SEAP, four-parameter fit, drug in nM) was 0.7193, the EC50 [2] was 0.5 nM and the “disruption of Bcl2:LD3 complex by SEC-MALS” value [3] was “effectively disrupts; also recorded: did not result in complex formation”.
